Experiments:
[1] = test system: C57BL6 mice (92 weeks old); assay: Treadmill running test of aged mice; type: in vivo, mouse; conditions: aged C57BL6 mice (92 weeks old), oral, 50 mg/kg/day, 2 months
Method: (§1) Water-suspended Compound #5 was orally administered to C57BL6 mice (92 weeks old) at a dose of 50 mg/kg/day per kg of mouse weight for 2 months ([MA5 addition group], n=5). After 2 months of oral administration, the mice were 101 weeks old.
(§2) In addition, water was orally administered to C57BL6 mice (92 weeks old) for 2 months ([Vehicle group], n=5). After 2 months of oral administration, the mice were 101 weeks old.

[2] = test system: α-Klotho gene-deficient mice; assay: Survival rate of α-Klotho gene-deficient mice (Kaplan-Meier); type: in vivo; conditions: oral, 10 mg/kg mouse weight/day from 28 days old until death
Method: Water-suspended Compound #5 was orally administered to α-Klotho gene-deficient mice (28 days old) as a premature aging animal model at a dose of 10 mg/kg mouse weight/day, the progress was observed until death, and the survival rate was evaluated from a survival curve based on the Kaplan-Meier method (Klotho homo KO mouse administration group, n=9).
In addition, water was orally administered to α-Klotho gene-deficient mice (28 days old) until death (Klotho homo KO mouse non-administered group, n=9).

[3] = test system: cochlear cells of the inner ear of wild-type mice; assay: RNA-Seq and ChIP-Atlas analysis of cochlear cells of wild-type mice; type: in vivo, mouse; conditions: wild-type C57BL6 mice, oral, 50 mg/kg/day, 2 weeks, Table 6
Method: Water-suspended Compound #5 was orally administered to C57BL6 mice (6 weeks old) at a dose of 50 mg/kg/day per kg of mouse weight for 2 weeks ([MA5 addition group], n=5).
In addition, water was orally administered to C57BL6 mice (6 weeks old) for […] ([Vehicle group], n=5).
RNA sequence (RNA-Seq) analysis was performed on cochlear cells of the inner ear of wild-type mice of [MA5 addition group] and [Vehicle group] described above, and genes whose expression levels changed (increased or decreased) in [MA5 addition group] as compared with [Vehicle group] were identified. Using the results of these gene names, integrated analysis with ChIP-Atlas was performed to investigate transcription factors possibly related to these genes.

[4] = test system: liver cells of young mice; assay: RNA-Seq and ChIP-Atlas analysis of liver cells of young mice; type: in vivo, mouse; conditions: oral, 50 mg/kg/day, 2 months, Table 3
Method: (§3) Water-suspended Compound #5 was orally administered to C57BL6 mice (12 weeks old) at a dose of 50 mg/kg/day per kg of mouse weight for 2 months ([MA5 addition group], n=5). After 2 months of oral administration, the mice were 20 weeks old.
(§4) In addition, water was orally administered to C57BL6 mice (12 weeks old) for 2 months ([Vehicle group], n=5). After 2 months of oral administration, the mice were 20 weeks old.
RNA sequencing (RNA-Seq) analysis was performed on the liver cells of young mice in [MA5 addition group] and [Vehicle group] to identify genes whose expression levels changed (increased or decreased) in [MA5 addition group] as compared with [Vehicle group]. Using the results of these gene names, integrated analysis with ChIP-Atlas was performed to investigate transcription factors possibly related to these genes.

[5] = test system: muscle cells of young mice; assay: RNA-Seq, pathway and ChIP-Atlas analysis of muscle cells of young mice; type: in vivo, mouse; conditions: oral, 50 mg/kg/day, 2 months
Method: as §3, §4
(§5) RNA sequencing (RNA-Seq) analysis was performed on the muscle cells of the young mice in [MA5 addition group] and [Vehicle group] to identify genes whose expression levels changed (increased or decreased) in [MA5 addition group] and [Vehicle group] compared to the muscle cells of young mice before administration. The results are illustrated in FIG. 16.
Based on the names of genes whose expression levels increased or decreased in the young mice of [MA5 addition group] as compared with the young mice of [Vehicle group] in the RNA sequence (RNA-Seq) analysis, pathway analysis of genes whose expression levels varied in [MA5 addition group] was performed. The results are illustrated in FIG. 17. […]

[6] = test system: various SIRTs (SIRT1, SIRT2, SIRT3, SIRT5, SIRT6, and SIRT7); assay: Expression levels of various SIRTs in HEI-OC1 cells by Western blotting; type: cell-based, mouse; conditions: HEI-OC1 cell line, 1, 3, 10 or 30 μM, 24 hours, compared with absence of MA5 (0.1% DMSO)
Method: HEI-OC1 cells (mouse inner ear cell line) at 1×10^6 cell/dish were seeded and cultured in a dish containing 10 mL of a culture solution (low-glucose-containing DMEM medium (glucose concentration of 1.0 g/dL) to which 10 wt. % of FBS was added). After one day, 0.1% DMSO as a solvent of the compound or Compound #5 at various concentrations (1 μM, 3 μM, 10 μM, or 30 μM) was added, and the mixture was cultured for 24 hours ([Compound #5 addition group]). After completion of culture, the cells were collected, disrupted by a typical method, and the expression levels of various SIRTs (SIRT1, SIRT2, SIRT3, SIRT5, SIRT6, and SIRT7) in the cells were analyzed by Western blotting (see FIGS. 1-1 and 1-2).

[7] = test system: muscle cells of aged mice; assay: RNA-Seq, pathway and ChIP-Atlas analysis of muscle cells of aged mice; type: in vivo, mouse; conditions: oral, 50 mg/kg/day, 2 months
Method: as §1, §2
as §5, with “aged” for “the young”, “administration.” for “administration. The results are illustrated in FIG. 16.”
Based on the names of genes whose expression levels increased or decreased in the aged mice of [MA5 addition group] as compared with the aged mice of [Vehicle group] in the RNA sequence (RNA-Seq) analysis, pathway analysis of genes whose expression levels varied in muscle cells of the aged mice of [MA5 addition group] was performed.
The results of the names of the genes whose expression levels increased or decreased in the aged mice of [MA5 addition group] as compared with the aged mice of [Vehicle group] in the RNA sequence (RNA-Seq) analysis were used to perform integrated analysis with ChIP-Atlas to investigate transcription factors possibly related to these genes.

O=C(CC(C(=O)O)c1c[nH]c2ccccc12)c1ccc(F)cc1F (centres unmarked) [Compound #5, 4-(2,4-difluorophenyl)-2-(1H-indole-3-yl)-4-oxo-butanoic acid]
running time on a treadmill [1]: not reduced | time until exhaustion (percentage of mice that continue running) ([1]; compared to Vehicle group): significantly improved | survival rate [2]: significantly increased | transcription factors related to the genes whose expression increased (ChIP-Atlas) [3]: SUZ^12 and EZH2 | transcription factors related to genes whose expression increased (ChIP-Atlas) [4]: MYC, OCT4, SOX2, and NANOG related to reprogramming factors in the production of iPS cells, RXR (retinoid X receptor) and PPARA (peroxisome proliferator-activated receptor a) related to SIRT, and TRIM28 | expression levels of genes related to differentiation, development, and the like of muscles such as Tbx1 Gene [5]: increased | transcription factors related to the genes whose expression increased (ChIP-Atlas) ([5]; Table 2): SUZ^12 and EZH2 | expression levels of various SIRTs in the cells [6]: increased | MAPK cascade (pathway analysis) [7]: inhibition | insulin signaling pathway (pathway analysis) [7]: enhancement | longevity regulating pathway (pathway analysis) [7]: enhancement | transcription factors associated with genes whose expression was increased (ChIP-Atlas) ([7]; Table 1): FOXO1 known as longevity genes, KLF4, which is one of reprogramming factors necessary for the production of iPS cells, and KLF2 and KLF5 | expression level of Klf4 Gene ([7]; vs Vehicle group): significantly increased | expression level of Myc Gene ([7]; vs Vehicle group): significantly increased | expression level of Nanog Gene ([7]; vs Vehicle group): tended to increase | expression level of Pou5f1 (Oct4) Gene ([7]; vs Vehicle group): tended to increase | expression level of Sox2 Gene ([7]; vs Vehicle group): significantly increased

— patent US20240307351A1, “AGENT FOR ANTI-AGING OR FOR CELLULAR REJUVENATION” (TOHOKU UNIVERSITY, priority 2022, published 2024)
